From patent publication US7932270B2 (Cytokinetics, Inc., priority 2006, dated 2011)

Molecular target: T1, chicken gizzard smooth muscle myosin subfragment-1 chemically crosslinked to cardiac or skeletal actin (Gallus gallus, UniProt P10587)
T1 construct: chicken gizzard smooth muscle myosin subfragment-1; from tissue; host or cells: chicken gizzard
Assay: Smooth muscle myosin ATPase dose response assay (pyruvate kinase/horseradish peroxidase/pyruvate oxidase-coupled, amplex red fluorescence)
Assay type: biochemical
Conditions: read-out: IC50 Arithmetic Mean
How it was run: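 ATPase monitored by amplex red fluorescence (ex 480/em 615 nm) via pyruvate oxidase/HRP coupling, pH 7.00, ATP 0.15 mM. Enzyme: smooth muscle S1-actin crosslinked conjugate, amount set empirically by titration. Dose-response fitted with 4-parameter Hill equation for IC50.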

T1 sequence (P02607 2-151): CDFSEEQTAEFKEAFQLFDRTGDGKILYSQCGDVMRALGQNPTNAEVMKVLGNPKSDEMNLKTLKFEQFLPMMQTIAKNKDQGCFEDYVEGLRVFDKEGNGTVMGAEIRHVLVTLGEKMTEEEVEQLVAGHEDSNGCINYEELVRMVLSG
T1 sequence (P10587 84-789): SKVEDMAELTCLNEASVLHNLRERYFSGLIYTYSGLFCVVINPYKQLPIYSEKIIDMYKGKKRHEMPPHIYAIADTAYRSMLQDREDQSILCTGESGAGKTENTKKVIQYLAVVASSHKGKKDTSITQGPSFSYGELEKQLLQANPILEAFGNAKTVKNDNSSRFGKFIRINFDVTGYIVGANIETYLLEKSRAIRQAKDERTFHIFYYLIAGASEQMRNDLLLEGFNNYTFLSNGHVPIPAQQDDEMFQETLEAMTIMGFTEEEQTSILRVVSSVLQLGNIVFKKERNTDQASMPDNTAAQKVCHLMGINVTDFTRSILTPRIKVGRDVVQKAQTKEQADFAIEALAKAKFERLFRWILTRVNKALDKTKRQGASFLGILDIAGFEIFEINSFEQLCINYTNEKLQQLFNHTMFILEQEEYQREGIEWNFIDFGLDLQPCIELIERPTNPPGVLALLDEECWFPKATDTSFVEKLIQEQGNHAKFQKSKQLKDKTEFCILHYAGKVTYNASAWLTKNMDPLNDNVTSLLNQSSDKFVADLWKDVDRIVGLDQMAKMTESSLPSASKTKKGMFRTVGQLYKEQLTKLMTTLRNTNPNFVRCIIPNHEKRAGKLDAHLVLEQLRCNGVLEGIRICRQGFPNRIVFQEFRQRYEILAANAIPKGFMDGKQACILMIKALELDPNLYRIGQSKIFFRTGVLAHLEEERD

Structure (SMILES)	IC50
N#Cc1ccccc1-c1ccc(C(=O)NC[C@H]2CCN2C(=O)CCCO)c(NCCc2cccc(F)c2)n1 [N-{[(2R)-1-(4-hydroxybutanoyl)azetidin-2-yl]methyl}(6-(2-cyanophenyl)-2-{[2-(3-fluorophenyl)ethyl]amino}(3-pyridyl))carboxamide]	60 nM
N#Cc1ccccc1-c1ccc(C(=O)NC[C@H]2CN(C(=O)CCCN)CCN2)c(NCCc2cccc(F)c2)n1 [N-{[(2S)-4-(4-aminobutanoyl)piperazin-2-yl]methyl}(6-(2-cyanophenyl)-2-{[2-(3-fluorophenyl)ethyl]amino}(3-pyridyl))carboxamide]	12400 nM
NC(=O)CNC(=O)c1ccc(-c2ccc(CO)s2)nc1NCCc1cccc(F)c1 [N-(carbamoylmethyl)(2-{[2-(3-fluorophenyl)ethyl]amino}-6-[5-(hydroxymethyl)(2-thienyl)](3-pyridyl))carboxamide]	496 nM
O=C(NCc1cccnc1)c1ccc(-c2cccc(O)c2)nc1NCCc1ccccn1 [{6-(3-hydroxyphenyl)-2-[(2-(2-pyridyl)ethyl)amino](3-pyridyl)}-N-(3-pyridylmethyl)carboxamide]	790 nM
N#Cc1ccccc1-c1ccc(C(=O)NCCN)c(NCCc2cccc(F)c2)n1 [N-(2-aminoethyl)(6-(2-cyanophenyl)-2-{[2-(3-fluorophenyl)ethyl]amino}(3-pyridyl))carboxamide]	2640 nM
C[C@@H](CNC(=O)c1ccc(-c2ccccc2C#N)nc1NCCc1cccc(F)c1)NC(=O)CN	1460 nM
N#Cc1ccccc1-c1ccc(C(=O)NCC(=O)NCCO)c(NCCc2cccc(F)c2)n1 [2-[(6-(2-cyanophenyl)-2-{[2-(3-fluorophenyl)ethyl]amino}(3-pyridyl))carbonylamino]-N-(2-hydroxyethyl)acetamide]	2070 nM
O=C(NCc1cccnc1)c1ccc(-c2ccc(F)cc2)nc1NCCc1cc(F)cc(F)c1 [(2-{[2-(3,5-difluorophenyl)ethyl]amino}-6-(4-fluorophenyl)(3-pyridyl))-N-(3-pyridylmethyl)carboxamide]	138 nM
N#Cc1ccccc1-c1ccc(C(=O)NC(CCCN)C(N)=O)c(NCCc2cccc(F)c2)n1 (stereo not drawn) [N-(4-amino-1-carbamoylbutyl)(6-(2-cyanophenyl)-2-{[2-(3-fluorophenyl)ethyl]amino}(3-pyridyl))carboxamide]	590 nM
CC(C)(C)OC(=O)NCCCC(=O)N1CCC[C@@H]1CNC(=O)c1cc(F)c(-c2cn[nH]c2)nc1NCCc1cccc(F)c1 [N-[((2R)-1-{4-[(tert-butoxy)carbonylamino]butanoyl}pyrrolidin-2-yl)methyl](5-fluoro-2-{[2-(3-fluorophenyl)ethyl]amino}-6-pyrazol-4-yl(3-pyridyl))carboxamide]	750 nM
N#Cc1ccccc1-c1ccc(C(=O)NCC2CC2)c(NCCc2cccc(F)c2)n1 [(6-(2-cyanophenyl)-2-{[2-(3-fluorophenyl)ethyl]amino}(3-pyridyl))-N-(cyclopropylmethyl)carboxamide]	136 nM
N#Cc1ccccc1-c1ccc(C(=O)NCc2cccnc2)c(NCCc2ccco2)n1 [{6-(2-cyanophenyl)-2-[(2-(2-furyl)ethyl)amino](3-pyridyl)}-N-(3-pyridylmethyl)carboxamide]	65 nM
COC(=O)CCC(=O)N1CCC[C@@H]1CNC(=O)c1ccc(-c2cnn(C)c2)nc1NCCc1cccc(F)c1 [methyl 4-((2R)-2-{[(2-{[2-(3-fluorophenyl)ethyl]amino}-6-(1-methylpyrazol-4-yl)(3-pyridyl))carbonylamino]methyl}pyrrolidinyl)-4-oxobutanoate]	3940 nM
Cc1cc(C(=O)NC[C@H]2CCCN2)c(NCCc2cccc(F)c2)nc1-c1cnn(C)c1 [N-[((2R)pyrrolidin-2-yl)methyl](2-{[2-(3-fluorophenyl)ethyl]amino}-5-methyl-6-(1-methylpyrazol-4-yl)(3-pyridyl))carboxamide]	901 nM
N#Cc1ccccc1-c1ccc(C(=O)NCCN2CCC[C@H](N)C2=O)c(NCCc2cccc(F)c2)n1 (stereo in doubt) [N-[2-(3-amino-2-oxopiperidyl)ethyl](6-(2-cyanophenyl)-2-{[2-(3-fluorophenyl)ethyl]amino}(3-pyridyl))carboxamide]	2950 nM
CNC(=O)[C@H](CNC(=O)c1ccc(-c2ccccc2C#N)nc1NCCc1cccc(F)c1)NC(C)=O [(2S)-2-(acetylamino)-3-[(6-(2-cyanophenyl)-2-{[2-(3-fluorophenyl)ethyl]amino}(3-pyridyl))carbonylamino]-N-methylpropanamide]	5550 nM
CC(C)(C)OC(=O)N[C@H](CO)C(=O)N1CC[C@@H]1CNC(=O)c1ccc(-c2ccccc2C#N)nc1NCCc1cccc(F)c1 [N-[(1R)-2-((2R)-2-{[(6-(2-cyanophenyl)-2-{[2-(3-fluorophenyl)ethyl]amino}(3-pyridyl))carbonylamino]methyl}azetidinyl)-1-(hydroxymethyl)-2-oxoethyl](tert-butoxy)carboxamide]	439 nM
N#Cc1ccccc1-c1ccc(C(=O)N[C@H](CCCCNC(=O)OCc2ccccc2)C(N)=O)c(NCCc2cccc(F)c2)n1 [N-{(1R)-1-carbamoyl-5-[(phenylmethoxy)carbonylamino]pentyl}(6-(2-cyanophenyl)-2-{[2-(3-fluorophenyl)ethyl]amino}(3-pyridyl))carboxamide]	58800 nM

Structure (SMILES)	IC50
NCCNc1ncccc1CNC(=O)c1ccc(-c2cn[nH]c2)nc1NCCc1cccc(F)c1 [N-({2-[(2-aminoethyl)amino](3-pyridyl)}methyl)(2-{[2-(3-fluorophenyl)ethyl]amino}-6-pyrazol-4-yl(3-pyridyl))carboxamide]	122 nM
C[C@H](CNC(=O)c1cc(F)c(-c2cn[nH]c2)nc1NCC(O)c1cccc(F)c1)NC(=O)CNC(=O)OC(C)(C)C (stereo partly drawn)	14200 nM
Cn1cc(-c2ccc(C(=O)NC[C@H]3CCCN3C(=O)CN)c(NCCc3cccc(F)c3)n2)cn1 [N-{[(2R)-1-(2-aminoacetyl)pyrrolidin-2-yl]methyl}(2-{[2-(3-fluorophenyl)ethyl]amino}-6-(1-methylpyrazol-4-yl)(3-pyridyl))carboxamide]	581 nM
C[C@@H](NC(=O)c1ccc(-c2ccccc2C#N)nc1NCCc1cccc(F)c1)C(N)=O	532 nM
O=C(NCc1cccnc1)c1ccc(-c2ccsc2)nc1NCCc1ccccn1 [{2-[(2-(2-pyridyl)ethyl)amino]-6-(3-thienyl)(3-pyridyl)}-N-(3-pyridylmethyl)carboxamide]	414 nM
N#Cc1ccccc1-c1ccc(C(=O)NCc2cccc(C(=O)O)n2)c(NCCc2cccc(F)c2)n1 [6-{[(6-(2-cyanophenyl)-2-{[2-(3-fluorophenyl)ethyl]amino}-3-pyridyl)carbonylamino]methyl}pyridine-2-carboxylic acid]	47 nM
CC(C)(C)OC(=O)NCCN1CCC[C@@H]1CNC(=O)c1ccc(-c2ccccc2C#N)nc1NCCc1cccc(F)c1 [N-[((2R)-1-{2-[(tert-butoxy)carbonylamino]ethyl}pyrrolidin-2-yl)methyl](6-(2-cyanophenyl)-2-{[2-(3-fluorophenyl)ethyl]amino}(3-pyridyl))carboxamide]	3690 nM
O=C(NCc1cccnc1)c1ccc(-c2ccccc2)nc1NCCc1ccccn1 [{6-phenyl-2-[(2-(2-pyridyl)ethyl)amino](3-pyridyl)}-N-(3-pyridylmethyl)carboxamide]	512 nM
Cc1cc(C(=O)NCc2cccnc2CN)c(NCCc2cccc(F)c2)nc1-c1ccccc1C#N [N-{[2-(aminomethyl)(3-pyridyl)]methyl}(6-(2-cyanophenyl)-2-{[2-(3-fluorophenyl)ethyl]amino}-5-methyl(3-pyridyl))carboxamide]	158 nM
N#Cc1ccccc1-c1ccc(C(=O)NC[C@H]2CCN2C(=O)C(O)CO)c(NCCc2cccc(F)c2)n1 (stereo partly drawn) [N-{[(2R)-1-(2,3-dihydroxypropanoyl)azetidin-2-yl]methyl}(6-(2-cyanophenyl)-2-{[2-(3-fluorophenyl)ethyl]amino}(3-pyridyl))carboxamide]	51 nM
N#Cc1ccccc1-c1ccc(C(=O)NCc2ccccc2CN)c(NCCc2cccc(F)c2)n1 [N-{[2-(aminomethyl)phenyl]methyl}(6-(2-cyanophenyl)-2-{[2-(3-fluorophenyl)ethyl]amino}(3-pyridyl))carboxamide]	24 nM
CC(=O)N1CCN(C)C[C@@H]1CNC(=O)c1ccc(-c2ccccc2C#N)nc1NCCc1cccc(F)c1 [N-[((2S)-1-acetyl-4-methylpiperazin-2-yl)methyl](6-(2-cyanophenyl)-2-{[2-(3-fluorophenyl)ethyl]amino}(3-pyridyl))carboxamide]	6790 nM
N#Cc1ccccc1-c1ccc(C(=O)NCCC(N)=O)c(NCCc2cccc(F)c2)n1 [N-(2-carbamoylethyl)(6-(2-cyanophenyl)-2-{[2-(3-fluorophenyl)ethyl]amino}(3-pyridyl))carboxamide]	99 nM
CNC(=O)CCNC(=O)c1ccc(-c2ccccc2C#N)nc1NCCc1cccc(F)c1 [3-[(6-(2-cyanophenyl)-2-{[2-(3-fluorophenyl)ethyl]amino}(3-pyridyl))carbonylamino]-N-methylpropanamide]	340 nM
Cn1cc(-c2nc(NCCc3cccc(F)c3)c(C(=O)NCC(C)(C)CO)cc2F)cn1 [(5-fluoro-2-{[2-(3-fluorophenyl)ethyl]amino}-6-(1-methylpyrazol-4-yl)(3-pyridyl))-N-(3-hydroxy-2,2-dimethylpropyl)carboxamide]	224 nM
N#Cc1ccccc1-c1ccc(C(=O)NCC2(CCN=[N+]=[N-])CCCNC2=O)c(NCCc2cccc(F)c2)n1 (stereo not drawn) [(6-(2-cyanophenyl)-2-{[2-(3-fluorophenyl)ethyl]amino}(3-pyridyl))-N-{[3-(3-diazo-3-azaprop-3-enyl)-2-oxo(3-piperidyl)]methyl}carboxamide]	15800 nM
CNC(=O)CNC(=O)c1ccc(-c2ccccc2C#N)nc1NCCc1cccc(F)c1 [2-[(6-(2-cyanophenyl)-2-{[2-(3-fluorophenyl)ethyl]amino}(3-pyridyl))carbonylamino]-N-methylacetamide]	102 nM
CN(C)C(n1cc(-c2ccc(C(=O)NC[C@H]3CCC(=O)N3CCCN)c(NCCc3cccc(F)c3)n2)cn1)=[N+](C)C	2130 nM
